This is an account of results in article PMC8623398, “Investigation of the Mechanisms of Cytotoxic Activity of 1,3-Disubstituted Thiourea Derivatives” (Pharmaceuticals, 2021).

For data set [1], the system named is HaCaT cells. Briefly: MTT assay, HaCaT normal cells. The data set is classed as cell-based, human. The conditions noted are these: Homo sapiens, HaCaT, 72 h. The procedure:
As a first step in assessing their cytotoxic properties, all thioureas of the series were assayed against four human carcinoma cell lines, such as SW480 (primary colon cancer), SW620 (metastatic colon cancer), PC3 (metastatic prostate cancer), and K-562 (chronic myelogenous leukemia), as well as against the normal cell line HaCaT (immortalized human keratinocytes). Table 1 lists the compound concentrations that produced 50% of growth inhibition (IC50, μM), generated by the MTT method, in comparison with two commonly used chemotherapeutic agents, doxorubicin and cisplatin.
The human primary (SW480), metastatic (SW620) colon cancer, metastatic prostate cancer (PC3), chronic myelogenous leukemia (K-562), and human immortal keratinocyte (HaCaT) cell lines were purchased from the American Type Culture Collection (ATCC, Rockville, MD, USA). The cells were cultured in medium according to protocols (MEM for SW480 and SW620, RPMI 1640 for PC3 and K-562, and DMEM for HaCaT cells), supplemented with 10% FBS, penicillin (100 U/mL) and streptomycin (100 μg/mL), and cultured in a 37 °C/5% CO2 humidified incubator. The cells were cultured until appropriate confluence was achieved (80–90%). Next, they were harvested by treatment with 0.25% trypsin (Gibco Life Technologies, Waltham, MA, USA) excluding the non-adherent K-562 cell line and used for studies.
Cells without the studied compounds in medium were used as a control.
The cell viability was assessed by determination of MTT salt [3-(4,5-dimethylthiazol-2-yl)-2,5-diphenyltetrazoliumbromide] conversion by mitochondrial dehydrogenase. The MTT assay was performed as previously described. Alternatively, non-adherent leukemic cells were centrifuged in a microplate centrifuge (400× g, 5 min) during the collection stages. Experiments were repeated three times. Cell viability was presented as a percent of MTT reduction in the treated cells versus the control cells. The number of viable cells cultured without the studied compounds was assumed as 100%. A decreased relative MTT level indicated decreased cell viability. Thiourea compounds with the highest cytotoxic potential assessed by MTT determination (with the lowest IC50) were chosen for subsequent assessments of cytotoxicity mechanisms.
For orientation: Tetrazolium dyes change colour on reduction, which living cells bring about.

For another data set, the system named is K-562 cells. Briefly: Trypan blue assay, K-562. The conditions noted are these: K-562, 72 h; for reduction in live cell number: IC50 concentration, vs control; for Cell Number × 10^5 / Viability (%): compound at IC50 concentration. Format: cell-based, human. The procedure: In order to estimate the tumor and normal cell population density and their viability after treatment with compounds 1–3, 8, and 9, the trypan blue dye exclusion assay was performed. The live cell number of all cancerous cells incubated for 72 h with the studied thioureas was considerably lower in comparison with the controls (Table 2; Figure S1A). The highest reduction in cell amount was denoted for both colon SW480 and SW620 cells treated with the dichlorophenyl derivative 2, and it accounted for 93%. […] Similarly, a noticeable decline in both colon cancer cell populations was observed after treatment with the ortho-substituted compound 8. The number of live cells equaled 12% and 18%, respectively, as compared to controls. This thiourea also led to a reduction of PC3 cells of 38%, and leukemia K-562 cell lines of 27%. The number of SW620 and PC3 cells decreased by 72% and 63% in the presence of para-substituted compound 9. However, the reducing influence of this thiourea on the number of other cancerous cells was at the level of 21–32%. […] A significant effect on the other studied pathological cells was also noticed and accounted for 32–46%. Furthermore, the derivative 3 reduced the amount of live cancer cells by 32–59%, of which its decreasing impact on colon cancer cells was the greatest.
The live cell count was assessed by the trypan blue exclusion dye assay using an automated cell counter (CountessTM Invitrogen, Waltham, MA, USA). Untreated cells were used as the control.

A short description of data set [2]: Annexin V-FITC/PI flow cytometry, HaCaT. Format: cell-based, human. Also on record: viability at 72 h: concentration or dose not given beside the values. The following applies: human, HaCaT cells (normal keratinocytes), representative dot plot, Figure 4E, read-out: LL quadrant, viable cells. The procedure: (§1) To estimate the mechanism of anticancer activity of the selected compounds 1–3, 8, and 9, their effect on both early and late apoptosis was evaluated by flow cytometry analysis. […] Additionally, visible late apoptosis-inducing properties in these cell lines were denoted for the compound 9 (47% ± 3.0%), which was twice as strong towards the colon tumor cells mentioned above. The apoptotic properties of analogs 3 and 8 in K-562 cells varied from 30% ± 1.6% to 33% ± 2.3%. […] Whereas the apoptosis-generating influence of derivatives 2 and 3 on normal keratinocytes was higher (29% and 23%), their selectivity measured by MTT methods is favorable. The obtained results are in agreement with the IC50 values assigned to pathological cancer cell lines. The cells were cultured and harvested under the conditions described in Section 3.2.1. […] The effect of these compounds on the process of early and late apoptosis and necrosis was determined as described previously by dual staining with Annexin V:FITC and propidium iodide, according to the manufacturer’s protocol (Becton Dickinson). The cells that were Annexin V:FITC positive and PI negative were identified as early apoptotic, and Annexin V:FITC and PI positive as late apoptotic or necrotic.
Background: In flow cytometry, cells or beads pass a laser one at a time.

For another data set, the system named is PC3 cells. The data set can be described thus: Annexin V-FITC/PI flow cytometry, PC3. Format: cell-based, human. The following applies: PC3, 72 h, IC50 concentration. The procedure:
as §1

Data set [3] relates to HaCaT cells. Briefly: Annexin V-FITC/PI flow cytometry, HaCaT. Format: cell-based, human. The following applies: 72 h, IC50 concentration, Annexin V-FITC/PI. Also on record: viability at 72 h: concentration or dose not given beside the values. Here is the method:
as §1

As usually defined, the IC50 is the concentration at which inhibition is half-maximal. In general, melting point refers to the temperature, or range, at which the solid turns liquid. Compound `FC(F)(F)c1ccc(NC(=S)Nc2cccc(C(F)(F)F)c2)cc1` [Compound 8, 1-[3-(trifluoromethyl)phenyl]-3-[4-(trifluoromethyl)phenyl]thiourea] yielded a melting point of 134 to 136 °C. This compound showed an IC50 with HaCaT cells [1] of 41.3 ± 0.17 µM. In the data set with K-562 cells, the “reduction in live cell number” value worked out at 27%, the “Cell Number × 10^5” value is given as 3.2 ± 0.14 × 10^5 and the “Viability (%)” value came out at 88 ± 1.10%. In data set [2], the viability at 72 h came out at 70.1%. Further, the “cells in late apoptosis” value in the data set with PC3 cells was 25% ± 1.5%.
`FC(F)(F)c1cccc(NC(=S)Nc2ccc(Cl)cc2)c1` [Compound 9, 1-(4-chlorophenyl)-3-[3-(trifluoromethyl)phenyl]thiourea] showed an IC50 in the data set on HaCaT cells [1] of 71.5 ± 3.08 µM. Moreover, in the data set on K-562 cells, the “Cell Number × 10^5” value is on record as 3.5 ± 0.22 × 10^5 and the “Viability (%)” value is given as 90 ± 2.40%. Further, the viability at 72 h in data set [2] amounted to 79.5%.
`FC(F)(F)c1cccc(NC(=S)Nc2ccc(Cl)c(Cl)c2)c1` [Compound 2, 1-(3,4-dichlorophenyl)-3-[3-(trifluoromethyl)phenyl]thiourea]: the concentration for half-maximal inhibition (IC50) in the data set on HaCaT cells [1] was found to be 24.7 ± 0.05 µM. Further, in the data set on K-562 cells, the “reduction in live cell number” value is reported as 66%, the “Cell Number × 10^5” value is 1.0 ± 0.21 × 10^5 and the “Viability (%)” value was determined as 55 ± 1.03%. Also, in data set [2], the viability at 72 h was 57.6%. Also, the “cells in late apoptosis” value in the data set on HaCaT cells [3] is reported as 29%.
`Fc1ccc(NC(=S)Nc2cccc(C(F)(F)F)c2)cc1Cl` [Compound 1, 1-(3-chloro-4-fluorophenyl)-3-[3-(trifluoromethyl)phenyl]thiourea]: the midpoint of inhibition in the data set with HaCaT cells [1], the IC50, lay at 43.6 ± 4.22 µM. In the data set on K-562 cells, the “Cell Number × 10^5” value was 1.8 ± 0.24 × 10^5 and the “Viability (%)” value stood at 93 ± 2.05%. In data set [2], the viability at 72 h turned out to be 78.2%.
Compound `FC(F)(F)c1cccc(NC(S)=Nc2ccc(Cl)cc2Cl)c1` [Compound 3, 1-(2,4-dichlorophenyl)-3-[3-(trifluoromethyl)phenyl]thiourea] registered an IC50 in the data set on HaCaT cells [1] of 52.1 ± 0.95 µM. Besides, in the data set with K-562 cells, the “Cell Number × 10^5” value is on record as 3.0 ± 0.27 × 10^5 and the “Viability (%)” value came out at 85 ± 1.20%. Also, the viability at 72 h in data set [2] was 65.7%. In addition, the “cells in late apoptosis” value in the data set on HaCaT cells [3] came to 23%.
